Assay results published in patent US10543212B2, “Substituted amines for treating cardiac diseases” (Cardurion Pharmaceuticals, LLC, priority 2017, dated 2020).

Biological target: T1, Human full-length CaMKIIδ (Homo sapiens, UniProt Q13557)
T1 construct: Human full-length CaMKIIδ (Cat #02-111) was obtained from Carna Biosciences; GST; purchased Carna Biosciences 02-111
Test: Human CaMKII enzyme inhibition assay (radiometric kinase assay)
Type: biochemical
Settings: 3 μM compound; 500 nM ATP; 0.5 nM CaMKIIδ; read-out: CaMKIIδ inhibitory activity (%) at 3 μM
Procedure: In Vitro CaMKIIδ Inhibitory Activity was Evaluated by an Enzyme Assay.
Human CaMKII Enzyme Inhibition Assay
Kinase assay for CaMKIIs was performed using the radiometric assay. Human full-length CaMKIIδ (Cat #02-111) was obtained from Carna Biosciences (Kobe, Japan).
Enzyme reactions were performed in 25 mM HEPES, pH 7.5, with 5 mM magnesium chloride, 1 mM calcium chloride, 10 μg/mL Calmodulin, 2 mM DTT, 0.01% Tween20 and 500 nM ATP (0.2 μCi/well of [γ-33P] ATP) containing 0.5 nM CaMKIIδ and 0.1 μM autophosphorylation peptide (KKALRRQETVDAL)(Toray Research Center).
After incubating the enzyme, peptide, and compounds for 5 min, kinase reactions were initiated by adding ATP, followed by incubation for 60 min at room temperature in a total volume of 50 μL. The reactions were terminated by the addition of 10% trichloroacetic acid (final concentration). The [γ-33P]-phosphorylated proteins were filtered in a Harvest Plate (Merck Millipore) with a Cell Harvester (PerkinElmer) and then free [γ-33P] ATP was washed out with 3% phosphoric acid. The plates were dried, followed by the addition of 40 μl of MicroScintO (PerkinElmer). The radioactivity was counted by a TopCount scintillation counter (PerkinElmer). The signals of the reaction without enzyme were defined as 100% inhibitory activity and those of the reaction without inhibitors as 0% inhibitory activity. In vitro CaMKIIδ inhibitory activity was evaluated by % inhibitory activity of 3 μM compound concentration.

Row | Compound | inhibition at 3 µM
1 | COc1cc(N2CCC(N3CCOCC3)CC2)ccc1Nc1ncc(-c2ccc(C#N)c(O[C@@H](C)Cn3cnnc3)c2)cn1 [Example 17, 4-(2-((2-methoxy-4-(4-(morpholin-4-yl)piperidin-1-yl)phenyl)amino)pyrimidin-5-yl)-2-(((2S)-1-(4H-1,2,4-triazol-4-yl)propan-2-yl)oxy)benzonitrile] | 98%
2 | COc1cc(N2CCC(N3CCOCC3)CC2)ccc1Nc1ncc(-c2ccc(C#N)c(O[C@@H](C)Cn3cncn3)c2)cn1 [Example 1, 4-(2-((2-methoxy-4-(4-(morpholin-4-yl)piperidin-1-yl)phenyl)amino)pyrimidin-5-yl)-2-(((2S)-1-(1H-1,2,4-triazol-1-yl)propan-2-yl)oxy)benzonitrile] | 99%
3 | COc1cc(N2CCC(N3CCOCC3)CC2)ccc1Nc1ncc(-c2ccc(C#N)c(O[C@@H](C)Cn3ccnc3)c2)cn1 [Example 39, 2-(((2S)-1-(1H-imidazol-1-yl)propan-2-yl)oxy)-4-(2-((2-methoxy-4-(4-(morpholin-4-yl)piperidin-1-yl)phenyl)amino)pyrimidin-5-yl)benzonitrile] | 98%
4 | COc1cc(N2CCN(C3COC3)CC2)ccc1Nc1ncc(-c2ccc(C#N)c(O[C@@H](C)Cn3cnnn3)c2)cn1 [Example 192, 4-(2-((2-methoxy-4-(4-(oxetan-3-yl)piperazin-1-yl)phenyl)ami-no)pyrimidin-5-yl)-2-(((2S)-1-(1H-tetrazol-1-yl)propan-2-yl)oxy)benzonitrile] | 99%
5 | COc1cc(C(=O)N2CCC(OC)CC2)ccc1Nc1ncc(-c2ccc(C#N)c(O[C@@H](C)Cn3cnnn3)c2)cn1 [Example 152, 4-(2-((2-methoxy-4-((4-methoxypiperidin-1-yl)carbonyl)phenyl)ami-no)pyrimidin-5-yl)-2-(((2S)-1-(1H-tetrazol-1-yl)propan-2-yl)oxy)benzonitrile] | 98%
6 | COc1nn(C)cc1Nc1ncc(-c2ccc(C#N)c(O[C@@H](C)Cn3cncn3)c2)cn1 [Example 375, 4-(2-((3-methoxy-1-methyl-1H-pyrazol-4-yl)amino)pyrimidin-5-yl)-2-(((2S)-1-(1H-1,2,4-triazol-1-yl)propan-2-yl)oxy)benzonitrile] | 97%
7 | C[C@@H](Cn1cncn1)Oc1cc(-c2cnc(Nc3cnn(C4CC4)c3)nc2)ccc1C#N [Example 361, 4-(2-((1-cyclopropyl-1H-pyrazol-4-yl)amino)pyrimidin-5-yl)-2-(((2S)-1-(1H-1,2,4-triazol-1-yl)propan-2-yl)oxy)benzonitrile] | 98%
8 | COc1cc(C(=O)NC2CCOCC2)ccc1Nc1ncc(-c2ccc(C#N)c(O[C@@H](C)Cn3cnnn3)c2)cn1 [Example 87, 4-((5-(4-cyano-3-(((2S)-1-(1H-tetrazol-1-yl)propan-2-yl)oxy)phenyl)pyrimidin-2-yl)amino)-3-methoxy-N-(tetrahydro-2H-pyran-4-yl)benzamide] | 98%
9 | COc1ccc(N2CCC(N3CCOCC3)CC2)cc1Nc1ncc(-c2ccc(C#N)c(O[C@@H](C)Cn3cnnn3)c2)cn1 [Example 202, 4-(2-((2-methoxy-5-(4-(morpholin-4-yl)piperidin-1-yl)phenyl)amino)pyrimidin-5-yl)-2-(((2S)-1-(1H-tetrazol-1-yl)propan-2-yl)oxy)benzonitrile] | 99%
10 | CC(C)n1cc(Nc2ncc(-c3ccc(C#N)c(O[C@@H](C)Cn4ncnn4)c3)cn2)cn1 [Example 371, 4-(2-((1-isopropyl-1H-pyrazol-4-yl)amino)pyrimidin-5-yl)-2-(((2S)-1-(2H-tetrazol-2-yl)propan-2-yl)oxy)benzonitrile] | 94%
11 | C[C@@H](Cn1ncnn1)Oc1cc(-c2cnc(Nc3cnn(C)c3)nc2)ccc1C#N [Example 411, 4-(2-((1-methyl-1H-pyrazol-4-yl)amino)pyrimidin-5-yl)-2-(((2S)-1-(2H-tetrazol-2-yl)propan-2-yl)oxy)benzonitrile] | 93%
12 | COc1cc(C(=O)N2CCN(C)CC2)ccc1Nc1ncc(-c2ccc(C#N)c(O[C@@H](C)Cn3cncn3)c2)cn1 [Example 73, 4-(2-((2-methoxy-4-((4-methylpiperazin-1-yl)car-bonyl)phenyl)amino)pyrimidin-5-yl)-2-(((2S)-1-(1H-1,2,4-triazol-1-yl)propan-2-yl)oxy)benzonitrile] | 97%
13 | COc1cc(N2CCC(N3CCOCC3)CC2)ccc1Nc1ncc(-c2ccc(Cl)c(O[C@@H](C)Cn3ccnc3)c2)cn1 [Example 58, 5-(4-chloro-3-(((2S)-1-(1H-imidazol-1-yl)propan-2-yl)oxy)phenyl)-N-(2-methoxy-4-(4-(morpholin-4-yl)piperidin-1-yl)phenyl)pyrimidin-2-amine] | 99%
14 | COc1cc(C(=O)N2CCOCC2)ccc1Nc1ncc(-c2ccc(C#N)c(O[C@@H](C)Cn3cnnn3)c2)cn1 [Example 82, 4-(2-((2-methoxy-4-(morpholin-4-ylcar-bonyl)phenyl)amino)pyrimidin-5-yl)-2-(((2S)-1-(1H-tetrazol-1-yl)propan-2-yl)oxy)benzonitrile] | 98%
15 | COc1ccccc1Nc1ncc(-c2ccc(C#N)c(O[C@@H](C)Cn3cncn3)c2)cn1 [Example 2, 4-(2-((2-methoxy-phenyl)amino)pyrimidin-5-yl)-2-(((2S)-1-(1H-1,2,4-triazol-1-yl)propan-2-yl)oxy)benzonitrile] | 96%
16 | COc1cc(C2CCNCC2)ccc1Nc1ncc(-c2ccc(C#N)c(O[C@@H](C)Cn3cncn3)c2)cn1 [Example 50, 4-(2-((2-methoxy-4-(piperidin-4-yl)phenyl)amino)pyrimidin-5-yl)-2-(((2S)-1-(1H-1,2,4-triazol-1-yl)propan-2-yl)oxy)benzonitrile] | 99%
17 | COc1cc(C(=O)N2CCOCC2)ccc1Nc1ncc(-c2ccc(C#N)c(O[C@@H](C)Cn3cncn3)c2)cn1 [Example 72, 4-(2-((2-methoxy-4-(morpholin-4-ylcar-bonyl)phenyl)amino)pyrimidin-5-yl)-2-(((2S)-1-(1H-1,2,4-triazol-1-yl)propan-2-yl)oxy)benzonitrile] | 97%
18 | COc1cc(C(=O)N2CC3(CN(C)C3)C2)ccc1Nc1ncc(-c2ccc(C#N)c(O[C@@H](C)Cn3cncn3)c2)cn1 [Example 147, 4-(2-((2-methoxy-4-((6-methyl-2,6-diazaspiro[3.3]hept-2-yl)carbonyl)phenyl)ami-no)pyrimidin-5-yl)-2-(((2S)-1-(1H-1,2,4-triazol-1-yl)propan-2-yl)oxy)benzonitrile] | 95%
19 | C[C@@H](Cn1cnnn1)Oc1cc(-c2cnc(Nc3cn(C)nc3C(F)(F)F)nc2)ccc1C#N [Example 380, 4-(2-((1-methyl-3-(trifluoromethyl)-1H-pyrazol-4-yl)amino)pyrimidin-5-yl)-2-(((2S)-1-(1H-tetrazol-1-yl)propan-2-yl)oxy)benzonitrile] | 99%
20 | COc1cc(N2CCC(N3CCNCC3)CC2)ccc1Nc1ncc(-c2ccc(C#N)c(O[C@@H](C)Cn3cnnn3)c2)cn1 [Example 34] | 99%
21 | COc1cc(C(=O)N2CC3(CN(C)C3)C2)ccc1Nc1ncc(-c2ccc(C#N)c(O[C@@H](C)Cn3cnnn3)c2)cn1 [Example 172, 4-(2-((2-methoxy-4-((6-methyl-2,6-diazaspiro[3.3]hept-2-yl)carbonyl)phenyl)ami-no)pyrimidin-5-yl)-2-(((2S)-1-(1H-tetrazol-1-yl)propan-2-yl)oxy)benzonitrile] | 100%
